In US20060159631A1, “Compositions and methods for preventing dental stain” (SMITHKLINE BEECHAM CORPORATION, priority 2003, published 2006):

Assay: Coffee stain challenge on saliva pellicle-treated HAP discs, rated by visual inspection
Details: subjective index of 1 to 10 (1 representing greatest stain), coffee 24 hours, None = 2.0
Procedure: In a series of experiments, HAP discs were first treated with saliva to generate an artificial pellicle. […] Following a second rinse, the active-treated discs were immersed in a concentrated solution of coffee for a period of 24 hours in order to simulate a dietary stain challenge. After rinsing to remove excess coffee solution, the discs were dried and rated for stain by visual inspection. Using a subjective index of 1 to 10 (1 representing greatest stain), stain intensity is tabluated below.

pegulated lauryl phosphate ether [DLP-10]
Stain Intensity (2% (w/w) active): 3.5 | Stain Intensity (5% (w/w) active): 4.0

O=P(O)(O)OP(=O)(O)OP(=O)(O)O [STP]
Stain Intensity (10% (w/w) active): 5.5
